Tests used:
ALOMY [1] = test: greenhouse test, post-emergence treatment; type: in vivo, Alopecurus myosuroides; details: Use Example 17
Method: (§1) The culture containers used were plastic pots containing loamy sand with approximately 3.0% of humus as substrate. The seeds of the test plants were sown separately for each species.
(§2) For the post-emergence treatment, the test plants were grown to a plant height of from 3 to 15 cm, depending on the plant habit, and only then treated with the active compounds which had been suspended or emulsified in water. To this end, the test plants were either sown directly and grown in the same containers, or they were first grown separately as seedlings and transplanted into the test containers a few days prior to treatment.
(§3) Depending on the species, the plants were kept at 10-25° C. and 20-35° C., respectively. The test period extended over 2 to 4 weeks. During this time, the plants were tended and their response to the individual treatments was evaluated.
(§4) Evaluation was carried out using a scale from 0 to 100. 100 means no emergence of the plants, or complete destruction of at least the above-ground parts, and 0 means no damage or normal course of growth. Good herbicidal activity is given at values of at least 70, and very good herbicidal activity is given at values of at least 85.
(§5) The respective stated components A and B, and if appropriate, C were formulated as a 5% by weight or 10% by weight strength emulsion concentrate or a commercially available formulation of component B was used and, with addition of the amount of solvent system, introduced into the spray liquor used for applying the active compound. In the examples, the solvent used was water.
(§6) The test period extended over 20 or 21 days. During this time, the plants were tended, and their reactions to the treatment with active compound was monitored.
(§7) What was evaluated was the damage by the chemical compositions using a scale of from 0 to 100%, in comparison to the untreated control plants. 0 means no damage, and 100 means complete destruction of the plants.
(§8) In the examples below, using the method of S. R. Colby (1967) “Calculating synergistic and antagonistic responses of herbicide combinations”, Weeds 15, p. 22 ff., the value E, which is expected if the activity of the individual active compounds is only additive, was calculated.
(§9) where X=percent activity using active compound A at an application rate a; Y=percent activity using active compound B at an application rate b; E=expected activity (in %) by A+B at application rates a+b.
(§10) If the value found in experiments is higher than the value E calculated according to Colby, a synergistic effect is present.

ALOMY [2] = test: greenhouse test, pre-emergence treatment; type: in vivo, Alopecurus myosuroides
Description: as §1
(§11) For the pre-emergence treatment, the active compounds, suspended or emulsified in water, were applied directly after sowing by means of finely distributing nozzles. The containers were irrigated gently to promote germination and growth and subsequently covered with transparent plastic hoods until the plants had rooted. This cover caused uniform germination of the test plants unless this was adversely affected by the active compounds.
as §3, §4, §5, §6, §7, §8, §9, §10

MATIN = test: greenhouse test, pre-emergence treatment; type: in vivo, Matricaria inodora; details: Use Example 2
Description: as §1, §11, §3, §4, §5, §6, §7, §8, §9, §10

SETVI [3] = test: greenhouse test, post-emergence treatment; type: in vivo, Setaria viridis
Method: as §1, §2, §3, §4, §5, §6, §7, §8, §9, §10

SETVI [4] = test: greenhouse test, pre-emergence treatment; type: in vivo, Setaria viridis; details: 125 g/ha a.s., Use Example 11
Description: as §1, §11
Depending on the species, the plants were kept at 10-25° C. and 20-35° C., respectively. […] During this time, the plants were tended and their response to the individual treatments was evaluated. […]
as §6
(§12) What was evaluated was the damage by the chemical compositions using a scale of from 0 to 100%, in comparison to the untreated control plants. […]
(§13) In the examples below, using the method of S. R. Colby (1967) “Calculating synergistic and antagonistic responses of herbicide combinations”, Weeds 15, p. 22 ff., the value E, which is expected if the activity of the individual active compounds is only additive, was calculated. […]

LOLMU = test: greenhouse test, pre-emergence treatment; type: in vivo, Lolium multiflorum
Description: as §1, §11, §3, §4, §5, §6, §7, §8, §9, §10

PANDI = test: greenhouse test, pre-emergence treatment; type: in vivo, Panicum dichotomiflorum; details: 62.5 g/ha a.s., Use Example 3
Description: as §1, §11, §3
as §4, with “85. […]” for “85.”
as §6, §12, §13, §10

DIGSA = test: greenhouse test, pre-emergence treatment; type: in vivo, Digitaria sanguinalis; details: for Herbicidal action in % after 21 days against DIGSA: Use Example 9
Description: as §1, §11, §3, §4, §5, §6, §7, §8, §9, §10

CCHEC = test: greenhouse test, pre-emergence treatment; type: in vivo, Cenchrus echinatus
Description: as §1, §11, §3, §4, §5, §6, §7, §8, §9, §10

Compound: CN1C(=O)C(C)(Cc2ccccc2)N(C)C(=O)C1=Cc1ccccc1C#N (stereo not drawn) [Example 20, 2-[5-Benzyl-1,4,5-trimethyl-3,6-dioxopiperazin-2-ylidenemethyl]benzo-nitrile]
- Herbicidal action in % after 20 days against ALOMY (ALOMY [1]; 125 g/ha a.s.): 40%
- Herbicidal action in % after 20 days against ALOMY (ALOMY [1]; 250 g/ha a.s.): 70%
- Herbicidal action in % after 20 days against ALOMY (ALOMY [2]; 62.5 g/ha a.s., Use Example 2): 45%
- Herbicidal action in % after 20 days against ALOMY (ALOMY [2]; 125 g/ha a.s., Use Example 2): 55%
- Herbicidal action in % after 20 days against ALOMY (ALOMY [2]; 125 g/ha a.s., Use Example 7): 40%
- Herbicidal action in % after 20 days against ALOMY (ALOMY [2]; 125 g/ha a.s., Use Example 10): 45%
- Herbicidal action in % after 20 days against ALOMY (ALOMY [2]; 125 g/ha a.s., Use Example 13): 45%
- Herbicidal action in % after 20 days against ALOMY (ALOMY [2]; 125 g/ha a.s., Use Example 15): 40%
- Herbicidal action in % after 20 days against ALOMY (ALOMY [2]; 250 g/ha a.s., Use Example 2): 85%
- Herbicidal action in % after 20 days against ALOMY (ALOMY [2]; 250 g/ha a.s., Use Example 4): 85%
- Herbicidal action in % after 20 days against ALOMY (ALOMY [2]; 250 g/ha a.s., Use Example 7): 90%
- Herbicidal action in % after 20 days against ALOMY (ALOMY [2]; 250 g/ha a.s., Use Example 10): 70%
- Herbicidal action in % after 20 days against ALOMY (ALOMY [2]; 250 g/ha a.s., Use Example 13): 70%
- Herbicidal action in % after 20 days against ALOMY (ALOMY [2]; 250 g/ha a.s., Use Example 15): 90%
- Herbicidal action in % after 20 days against MATIN (MATIN; 62.5 g/ha a.s.): 0%
- Herbicidal action in % after 20 days against MATIN (MATIN; 125 g/ha a.s.): 30%
- Herbicidal action in % after 20 days against MATIN (MATIN; 250 g/ha a.s.): 90%
- Herbicidal action in % after 20 days against SETVI (SETVI [3]; 62.5 g/ha a.s., Use Example 18): 60%
- Herbicidal action in % after 20 days against SETVI (SETVI [3]; 125 g/ha a.s., Use Example 17): 70%
- Herbicidal action in % after 20 days against SETVI (SETVI [3]; 125 g/ha a.s., Use Example 18): 70%
- Herbicidal action in % after 20 days against SETVI (SETVI [3]; 250 g/ha a.s., Use Example 17): 80%
- Herbicidal action in % after 21 days against SETVI (SETVI [4]): 80%
- Herbicidal action in % after 20 days against LOLMU (LOLMU; 125 g/ha a.s., Use Example 10): 0%
- Herbicidal action in % after 21 days against LOLMU (LOLMU; 125 g/ha a.s., Use Example 11): 0%
- Herbicidal action in % after 20 days against LOLMU (LOLMU; 125 g/ha a.s., Use Example 13): 0%
- Herbicidal action in % after 20 days against LOLMU (LOLMU; 250 g/ha a.s., Use Example 10): 45%
- Herbicidal action in % after 20 days against LOLMU (LOLMU; 250 g/ha a.s., Use Example 13): 45%
- Herbicidal action in % after 20 days against LOLMU (LOLMU; 500 g/ha a.s., Use Example 1): 70%
- Herbicidal action in % after 21 days against PANDI (PANDI): 95%
- Herbicidal action in % after 20 days against DIGSA (DIGSA; 125 g/ha a.s., Use Example 5): 90%
- Herbicidal action in % after 21 days against DIGSA (DIGSA; 125 g/ha a.s.): 90%
- Herbicidal action in % after 20 days against DIGSA (DIGSA; 125 g/ha a.s., Use Example 14): 90%
- Herbicidal action in % after 20 days against DIGSA (DIGSA; 250 g/ha a.s., Use Example 5): 100%
- Herbicidal action in % after 21 days against DIGSA (DIGSA; 250 g/ha a.s.): 100%
- Herbicidal action in % after 21 days against CCHEC (CCHEC; 62.5 g/ha a.s., Use Example 3): 20%
- Herbicidal action in % after 20 days against CCHEC (CCHEC; 250 g/ha a.s., Use Example 16): 90%
